According to the supplement of paper PMC10307832:

Assays:
Assay in all cases: relative viability (nuclei count vs DMSO), 5 days (fraction); higher = more cells survive
[1] = compound: COc1cc2nccc(Oc3ccc(NC(=O)C4(C(=O)Nc5ccc(F)cc5)CC4)cc3)c2cc1OC [Cabozantinib] + CS(=O)(=O)N1CCN(Cc2cc3nc(-c4cccc5[nH]ncc45)nc(N4CCOCC4)c3s2)CC1 [Pictilisib] (partner 1 µM)
In short: (§1)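 A single step with final 0.05% Triton X-100, 1% formaldehyde and 1 ug/ml Hoechst fixed the cells and stained nuclei 5 days after treatment. Lung cancer cell lines in 1536-well plates had been treated by pin tool the day after seeding with one drug alone or a fixed anchor-drug dose plus five library-drug doses (not always all listed) in √10 steps, and nuclei were counted on 4× images. Relative viability is the ratio of nuclei in treated wells to nuclei in vehicle wells, taken as the median of duplicate plates.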

[2] = compound: C1=CC(=CC=C1NC(=S)NNC2=C(C=C(C=C2[N+](=O)[O-])C(F)(F)F)[N+](=O)[O-])F [Kobe2602] + C[C@@H](Oc1cc(-c2cnn(C3CCNCC3)c2)cnc1N)c1c(Cl)ccc(F)c1Cl [Crizotinib] (partner 1 µM)
In short: as §1

[3] = compound: C1=CC(=CC=C1NC(=S)NNC2=C(C=C(C=C2[N+](=O)[O-])C(F)(F)F)[N+](=O)[O-])F [Kobe2602] + CC(=O)Nc1cccc(-n2c(=O)n(C3CC3)c(=O)c3c(Nc4ccc(I)cc4F)n(C)c(=O)c(C)c32)c1 [Trametinib] (partner 0.02 µM)
In short: as §1

[4] = compound: COc1cc2nccc(Oc3ccc(NC(=O)C4(C(=O)Nc5ccc(F)cc5)CC4)cc3)c2cc1OC [Cabozantinib] + O=C(c1cc(Cc2n[nH]c(=O)c3ccccc23)ccc1F)N1CCN(C(=O)C2CC2)CC1 [Olaparib] (partner 8 µM)
In short: as §1

## HCC-827
[1]; first compound 0.02 µM
  relative viability: 1.08
[1]; first compound 0.06325 µM
  relative viability: 0.991
[1]; first compound 0.6325 µM
  relative viability: 0.907
[1]; first compound 2 µM
  relative viability: 0.816
[2]; first compound 0.2 µM
  relative viability: 0.925
[2]; first compound 0.6325 µM
  relative viability: 0.921
[2]; first compound 2 µM
  relative viability: 0.903
[2]; first compound 6.325 µM
  relative viability: 0.91
[2]; first compound 20 µM
  relative viability: 0.859
[3]; first compound 0.2 µM
  relative viability: 0.546
[3]; first compound 0.6325 µM
  relative viability: 0.546
[3]; first compound 2 µM
  relative viability: 0.571
[3]; first compound 6.325 µM
  relative viability: 0.537
[3]; first compound 20 µM
  relative viability: 0.558
[4]; first compound 0.02 µM
  relative viability: 0.643
[4]; first compound 0.06325 µM
  relative viability: 0.786
[4]; first compound 0.6325 µM
  relative viability: 0.624
[4]; first compound 2 µM
  relative viability: 0.562

## NCI-H1703
[1]; first compound 0.02 µM
  relative viability: 0.214
[1]; first compound 0.06325 µM
  relative viability: 0.229
[1]; first compound 0.2 µM
  relative viability: 0.249
[1]; first compound 0.6325 µM
  relative viability: 0.226
[1]; first compound 2 µM
  relative viability: 0.18
[2]; first compound 0.2 µM
  relative viability: 0.775
[2]; first compound 0.6325 µM
  relative viability: 0.66
[2]; first compound 2 µM
  relative viability: 0.56
[2]; first compound 6.325 µM
  relative viability: 0.829
[2]; first compound 20 µM
  relative viability: 0.501
[4]; first compound 0.02 µM
  relative viability: 0.398
[4]; first compound 0.06325 µM
  relative viability: 0.232
[4]; first compound 0.2 µM
  relative viability: 0.224
[4]; first compound 0.6325 µM
  relative viability: 0.215
[4]; first compound 2 µM
  relative viability: 0.149

## NCI-H1975
[1]; first compound 0.02 µM
  relative viability: 0.28
[1]; first compound 0.06325 µM
  relative viability: 0.322
[1]; first compound 0.2 µM
  relative viability: 0.297
[1]; first compound 0.6325 µM
  relative viability: 0.303
[1]; first compound 2 µM
  relative viability: 0.337
[2]; first compound 0.2 µM
  relative viability: 1.01
[2]; first compound 0.6325 µM
  relative viability: 0.959
[2]; first compound 2 µM
  relative viability: 0.838
[2]; first compound 6.325 µM
  relative viability: 0.897
[2]; first compound 20 µM
  relative viability: 0.779
[3]; first compound 0.2 µM
  relative viability: 0.332
[3]; first compound 0.6325 µM
  relative viability: 0.333
[3]; first compound 2 µM
  relative viability: 0.328
[3]; first compound 6.325 µM
  relative viability: 0.29
[3]; first compound 20 µM
  relative viability: 0.352
[4]; first compound 0.02 µM
  relative viability: 0.881
[4]; first compound 0.06325 µM
  relative viability: 0.916
[4]; first compound 0.2 µM
  relative viability: 0.892
[4]; first compound 0.6325 µM
  relative viability: 0.786
[4]; first compound 2 µM
  relative viability: 0.679

## NCI-H2023
[1]; first compound 0.02 µM
  relative viability: 0.189
[1]; first compound 0.06325 µM
  relative viability: 0.228
[1]; first compound 0.2 µM
  relative viability: 0.22
[1]; first compound 0.6325 µM
  relative viability: 0.206
[1]; first compound 2 µM
  relative viability: 0.2
[2]; first compound 0.2 µM
  relative viability: 0.674
[2]; first compound 0.6325 µM
  relative viability: 0.627
[2]; first compound 2 µM
  relative viability: 0.526
[2]; first compound 6.325 µM
  relative viability: 0.611
[2]; first compound 20 µM
  relative viability: 0.473
[3]; first compound 0.2 µM
  relative viability: 0.469
[3]; first compound 0.6325 µM
  relative viability: 0.608
[3]; first compound 2 µM
  relative viability: 0.592
[3]; first compound 6.325 µM
  relative viability: 0.444
[3]; first compound 20 µM
  relative viability: 0.201
[4]; first compound 0.02 µM
  relative viability: 0.483
[4]; first compound 0.06325 µM
  relative viability: 0.545
[4]; first compound 0.2 µM
  relative viability: 0.383
[4]; first compound 0.6325 µM
  relative viability: 0.429
[4]; first compound 2 µM
  relative viability: 0.433

## ChaGo-K-1
[1]; first compound 0.02 µM
  relative viability: 0.533
[1]; first compound 0.06325 µM
  relative viability: 0.933
[1]; first compound 0.2 µM
  relative viability: 0.676
[1]; first compound 0.6325 µM
  relative viability: 0.405
[1]; first compound 2 µM
  relative viability: 0.647
[2]; first compound 0.2 µM
  relative viability: 1.16
[2]; first compound 0.6325 µM
  relative viability: 1.2
[2]; first compound 2 µM
  relative viability: 1.14
[2]; first compound 6.325 µM
  relative viability: 1.13
[2]; first compound 20 µM
  relative viability: 0.935
[3]; first compound 0.2 µM
  relative viability: 0.883
[3]; first compound 0.6325 µM
  relative viability: 0.884
[3]; first compound 2 µM
  relative viability: 0.912
[3]; first compound 6.325 µM
  relative viability: 0.769
[3]; first compound 20 µM
  relative viability: 0.855
[4]; first compound 0.02 µM
  relative viability: 0.446
[4]; first compound 0.06325 µM
  relative viability: 0.458
[4]; first compound 0.2 µM
  relative viability: 0.454
[4]; first compound 0.6325 µM
  relative viability: 0.411
[4]; first compound 2 µM
  relative viability: 0.442

## COR-L 105
[1]; first compound 0.02 µM
  relative viability: 0.343
[1]; first compound 0.06325 µM
  relative viability: 0.385
[1]; first compound 0.6325 µM
  relative viability: 0.43
[1]; first compound 2 µM
  relative viability: 0.37
[2]; first compound 0.2 µM
  relative viability: 0.85
[2]; first compound 0.6325 µM
  relative viability: 0.838
[2]; first compound 2 µM
  relative viability: 0.653
[2]; first compound 6.325 µM
  relative viability: 0.966
[2]; first compound 20 µM
  relative viability: 0.831
[3]; first compound 0.2 µM
  relative viability: 0.378
[3]; first compound 0.6325 µM
  relative viability: 0.49
[3]; first compound 2 µM
  relative viability: 0.417
[3]; first compound 6.325 µM
  relative viability: 0.395
[3]; first compound 20 µM
  relative viability: 0.402
[4]; first compound 0.02 µM
  relative viability: 0.75
[4]; first compound 0.06325 µM
  relative viability: 0.688
[4]; first compound 0.2 µM
  relative viability: 0.742
[4]; first compound 0.6325 µM
  relative viability: 0.663
[4]; first compound 2 µM
  relative viability: 0.805

## SK-MES-1
[1]; first compound 0.02 µM
  relative viability: 0.357
[1]; first compound 0.06325 µM
  relative viability: 0.391
[1]; first compound 0.2 µM
  relative viability: 0.335
[1]; first compound 0.6325 µM
  relative viability: 0.386
[1]; first compound 2 µM
  relative viability: 0.322
[2]; first compound 0.2 µM
  relative viability: 0.966
[2]; first compound 0.6325 µM
  relative viability: 0.964
[2]; first compound 2 µM
  relative viability: 0.954
[2]; first compound 6.325 µM
  relative viability: 1.04
[2]; first compound 20 µM
  relative viability: 1
[3]; first compound 0.2 µM
  relative viability: 0.579
[3]; first compound 0.6325 µM
  relative viability: 0.534
[3]; first compound 2 µM
  relative viability: 0.554
[3]; first compound 6.325 µM
  relative viability: 0.589
[3]; first compound 20 µM
  relative viability: 0.496
[4]; first compound 0.02 µM
  relative viability: 0.767
[4]; first compound 0.06325 µM
  relative viability: 0.845
[4]; first compound 0.2 µM
  relative viability: 0.689
[4]; first compound 0.6325 µM
  relative viability: 0.684
[4]; first compound 2 µM
  relative viability: 0.694
